Entries after “also recorded” stand apart in the source; their conditions may differ.
Each substance was assayed on target microorganisms (assay: Screen of synthesized peptides for binding to target microorganisms (targeting peptides, Tables 2 and 3)). Settings: microorganism(s) the targeting peptide was identified as binding to (Table 3).
Experimental: Once noted, these peptides were batch synthesized on a multiplex peptide synthesizer, yielding 5-10 mg of each peptide that could readily be screened for biological activity (e.g., binding activity and/or antimicrobial activity.
Other suitable targeting peptides include the peptides that have been identified as binding to particular target organisms as shown in Table 3 and/or Table 4.

Substance	Target(s)
1T-7 (SQRIIEPVKSPQPYPGFSVS; synthetic novel tartgeting peptide IT-7)	Myxococcus xanthus
1T-128 (SGSAIRMLEIATKMLKR; synthetic novel tartgeting peptide IT-128)	A. naeslundii, P. gingivalis; also recorded: S. epidermidis,; also recorded: S. gordonii, S. mitis, S. mutans,; also recorded: S. oralis, S. salivarious,; also recorded: S. sanguinis
1T-101 (RLRVGRATDLPLTSFAVGVVRNLPDAPAH; synthetic novel tartgeting peptide IT-101)	A. naeslundii, P. gingivalis; also recorded: S. epidermidis,; also recorded: S. gordonii, S. mitis, S. mutans,; also recorded: S. oralis, S. sanguinis
1T-14 (ALAGLAGLISGK; synthetic novel tartgeting peptide IT-14)	S. mutans; also recorded: S. aureus; also recorded: S. epidermidis; also recorded: C. xerosis
1T-102 (WKRLWPARILAGHSRRRMRWMVVWRYFAAT; synthetic novel tartgeting peptide IT-102)	A. naeslundii, F. nucleatum,; also recorded: P. gingivalis; also recorded: S. epidermidis,; also recorded: S. gordonii, S. mitis, S. mutans,; also recorded: S. oralis, S. salivarious,; also recorded: S. sanguinis
1T-2 (NIFEYFLE; synthetic novel tartgeting peptide IT-2)	S. gordonii; also recorded: S. mitis; also recorded: S. oralis; also recorded: V. atypica; also recorded: Lactobacillus casei; also recorded: Saliva-derived biofilms; also recorded: S. mutans; also recorded: S. sanguinis
1T-43 (DRCLSVLSWSPPKVSPLI; synthetic novel tartgeting peptide IT-43)	C. jeikium; also recorded: P. aeruginosa
1T-28 (VSRDEAMEFIDREWTTLQPAGKSHA; synthetic novel tartgeting peptide IT-28)	P. aeruginosa
1T-153 (YIACPGYFY; synthetic novel tartgeting peptide IT-153)	A. naeslundii, F. nucleatum,; also recorded: P. gingivalis; also recorded: S. epidermidis,; also recorded: S. gordonii, S. mitis, S. mutans,; also recorded: S. oralis, S. salivarious,; also recorded: S. sanguinis
1T-105 (GEGLPPPVLHLPPPRMSGR; synthetic novel tartgeting peptide IT-105)	S. epidermidis, S. gordonii,; also recorded: S. mitis, S. mutans,; also recorded: S. oralis
1T-61 (HATLLPAVREAISRQLLPALVPRG; synthetic novel tartgeting peptide IT-61)	P. aeruginosa
1T-51 (GKPKRMPAEFIDGYGQALLAGA; synthetic novel tartgeting peptide IT-51)	S. aureus; also recorded: P. aeruginosa
1T-107 (SPVPRFTAVGGVSRGSP; synthetic novel tartgeting peptide IT-107)	A. naeslundiiS. epidermidis,; also recorded: S. gordonii,; also recorded: S. mitis, S. mutans, S. oralis,; also recorded: S. salivarious, S. sanguinis
1T-4 (LDAYGELVGGN; synthetic novel tartgeting peptide IT-4)	S. mutans; also recorded: S. gordonii; also recorded: S. sanguinis; also recorded: S. oralis; also recorded: V. atypica; also recorded: L. casei
1T-136 (ELLTQIRLALLYSVNEW; synthetic novel tartgeting peptide IT-136)	A. naeslundii, F. nucleatum,; also recorded: P. gingivalis,; also recorded: S. epidermidis, S. gordonii,; also recorded: S. mitis, S. mutans,; also recorded: S. oralis, S. salivarious,; also recorded: S. sanguinis
1T-123 (LVRRNAVAGRSDGLAGAEQLDLVRLQGVL; synthetic novel tartgeting peptide IT-123)	S. gordonii

Substance	Target(s)
1T-29 (GSVIKKRRKRMSKKKHRKMLRRTRVQRRKLGK; synthetic novel tartgeting peptide IT-29)	S. mutans; also recorded: S. aureus; also recorded: S. epidermidis; also recorded: C. jeikeium; also recorded: C. xerosis; also recorded: C. striatum; also recorded: P. aeruginosa
1T-129 (YDKYIKYLSIQPPFIVYFI; synthetic novel tartgeting peptide IT-129)	A. naeslundii, P. gingivalis; also recorded: S. epidermidis,; also recorded: S. gordonii, S. mitis, S. mutans,; also recorded: S. oralis, S. salivarious,; also recorded: S. sanguinis
1T-15 (DVILRVEAQ; synthetic novel tartgeting peptide IT-15)	S. mutans
1T-62 (GCKGCAQRDPCAEPEPYFRLR; synthetic novel tartgeting peptide IT-62)	S. epidermidis; also recorded: P. aeruginosa
1T-124 (LFDERNKIA; synthetic novel tartgeting peptide IT-124)	S. mitis, S. mutans, S. oralis
1T-145 (VEAGKRNISLENIEKISKGLGISISELFKYIEEGEDKIG; synthetic novel tartgeting peptide IT-145)	S. mitis, S. mutans, S. oralis
1T-78 (FFKTIFVLILGALGVAAGLYIEKNYIDK; synthetic novel tartgeting peptide IT-78)	S. pneumoniae
1T-133 (YFIKDDNEALSKDWEVIGNDLKGTIDKYGKEFKVR; synthetic novel tartgeting peptide IT-133)	A. naeslundii, P. gingivalis; also recorded: S. epidermidis,; also recorded: S. gordonii, S. mitis, S. mutans,; also recorded: S. oralis, S. salivarious,; also recorded: S. sanguinis
1T-67 (GQRQRLTCGRVSGCSEGPSREAAR; synthetic novel tartgeting peptide IT-67)	S. aureus; also recorded: S. epidermidis; also recorded: C. jeikeium; also recorded: C. xerosis; also recorded: C. striatum; also recorded: P. aeruginosa
1T-12 (FGNIFKGLKDVIETIVKWTAAK; synthetic novel tartgeting peptide IT-12)	Corynebacterium; also recorded: xerosis; also recorded: striatum; also recorded: S. epidermidis; also recorded: S. mutans
1T-79 (FGTPWSITNFWKKNFNDRPDFDSDRRRY; synthetic novel tartgeting peptide IT-79)	S. pneumoniae
1T-33 (VRTLTILVIFIFNYLKSISYKLKQPFENNLAQSMISI; synthetic novel tartgeting peptide IT-33)	S. aureus; also recorded: S. epidermidis; also recorded: C. jeikeium; also recorded: C. xerosis; also recorded: C. striatum; also recorded: P. aeruginosa
1T-127 (YDPVPKRKNKNSEGKREE; synthetic novel tartgeting peptide IT-127)	A. naeslundii, F. nucleatum,; also recorded: P. gingivalis,; also recorded: T. denticolaS. gordonii,; also recorded: S. mitis, S. mutans, S. oralis,; also recorded: S. salivarious, S. sanguinis
1T-137 (PLNFYRAVKENRLPLSEKNINDFTNIKLKVSPKLINLLQESSIFYNFSPKKRNTN; synthetic novel tartgeting peptide IT-137)	A. naeslundii, F. nucleatum,; also recorded: P. gingivalis; also recorded: S. epidermidis,; also recorded: S. gordonii, S. mitis, S. mutans,; also recorded: S. oralis, S. salivarious,; also recorded: S. sanguinis
1T-100 (LDPLEPRIAPPGDRSHQGAPACHRDPLRGRSARDAER; synthetic novel tartgeting peptide IT-100)	S. gordonii, S. mitis, S. mutans
1T-148 (IVELDDTTILERALSMLGEANA; synthetic novel tartgeting peptide IT-148)	A. naeslundii, F. nucleatum,; also recorded: P. gingivalis,; also recorded: T. denticolaS. gordonii,; also recorded: S. mitis, S. mutans, S. oralis,; also recorded: S. salivarious, S. sanguinis
